Measured values reported in patent US8143421B2, “Broadspectrum substituted benzimidazole sulfonamide HIV protease inhibitors” (priority 2002, dated 2012).

Key:
mutant F = experiment: Antiviral spectrum, fold resistance towards mutant F; type: cell-based; conditions: FR=IC50(mutant strain)/IC50(HIV-1 strain LAI)
Method: (§1) Because of the increasing emergence of drug resistant HIV strains, the present compounds were tested for their potency against clinically isolated HIV strains harboring several mutations. These mutations are associated with resistance to protease inhibitors and result in viruses that show various degrees of phenotypic cross-resistance to the currently commercially available drugs such as for instance saquinavir, ritonavir, nelfinavir, indinavir and amprenavir. The viral strains R13025, R13027, R13028, R13029, R13034, R13080, T13127 and R13363 contained mutations as indicated below in Table 3.

mutant A = type: cell-based; conditions: FR=IC50(mutant strain)/IC50(HIV-1 strain LAI)
Method: (§2) HIV- or mock-infected MT4 cells were incubated for five days in the presence of various concentrations of the inhibitor. […] Cell viability is measured by measuring the concentration of MTT, a yellow, water soluble tetrazolium dye that is converted to a purple, water insoluble formazan in the mitochondria of living cells only. Upon solubilization of the resulting formazan crystals with isopropanol, the absorbance of the solution is monitored at 540 nm. The values correlate directly to the number of living cells remaining in the culture at the completion of the five day incubation. The inhibitory activity of the compound was monitored on the virus-infected cells and was expressed as IC50 and IC90. These values represent the amount of the compound required to protect 50% and 90%, respectively, of the cells from the cytopathogenic effect of the virus. […] The selectivity index (SI) (ratio CC50/IC50) is an indication of the selectivity of the anti-HIV activity of the inhibitor. Wherever results are reported as e.g. pIC50 or pCC50 values, the result is expressed as the negative logarithm of the result expressed as IC50 or CC50 respectively.
(§3) Because of the increasing emergence of drug resistant HIV strains, the present compounds were tested for their potency against clinically isolated HIV strains harboring several mutations. […] The viral strains R13025, R13027, R13028, R13029, R13034, R13080, T13127 and R13363 contained mutations as indicated below in Table 3.
(§4) As a measure of the broad spectrum activity of the present compounds, the fold resistance (FR), defined as FR=IC50(mutant strain)/IC50(HIV-1 strain LAI), was determined.

mutant E = type: cell-based; conditions: FR=IC50(mutant strain)/IC50(HIV-1 strain LAI)
Method: as §2, §3, §4

mutant G = experiment: Antiviral spectrum, fold resistance towards mutant G; type: cell-based; conditions: FR=IC50(mutant strain)/IC50(HIV-1 strain LAI)
Method: as §1

HIV-1 strain LAI = experiment: Cellular anti-HIV assay, MT4 cells, MTT readout, wild type HIV-1 strain LAI; type: cell-based; conditions: for pIC50 (LAI): MT4 cells, five days, HIV-1 strain LAI; for WT (pIC50 against wild type HIV-LAI strain): Table 4
Method: The compounds of the present invention were examined for anti-viral activity in a cellular assay. […] The cellular assay was performed according to the following procedure.

mutant D = experiment: Antiviral spectrum, fold resistance towards mutant D; type: cell-based; conditions: FR=IC50(mutant strain)/IC50(HIV-1 strain LAI)
Method: as §1

mock-infected MT4 cells = experiment: in vitro
Method: as §2, §4

mutant C = experiment: Antiviral spectrum, fold resistance towards mutant C; type: cell-based; conditions: FR=IC50(mutant strain)/IC50(HIV-1 strain LAI)
Method: as §1

mutant B = experiment: Antiviral spectrum, fold resistance towards mutant B; type: cell-based; conditions: FR=IC50(mutant strain)/IC50(HIV-1 strain LAI)
Method: as §1

mutant H = experiment: Antiviral spectrum, fold resistance towards mutant H; type: cell-based; conditions: FR=IC50(mutant strain)/IC50(HIV-1 strain LAI)
Method: as §1

[1] = pCC50 value as determined with mock transfected cells

| Compound | FR towards mutant F (mutant F) | FR value towards mutant A (mutant A) | FR towards mutant E (mutant E) | FR towards mutant G (mutant G) | pIC50 (LAI) (HIV-1 strain LAI; Table 1) | WT (pIC50 against wild type HIV-LAI strain) (HIV-1 strain LAI) | FR towards mutant D (mutant D) | Tox (pCC50) (mock-infected MT4 cells) | FR towards mutant C (mutant C) | FR towards mutant B (mutant B) | Tox (pCC50) (mock-infected MT4 cells; [1]) | FR towards mutant H (mutant H) | pIC50 (LAI) (HIV-1 strain LAI; Table 2) |
| --- | --- | --- | --- | --- | --- | --- | --- | --- | --- | --- | --- | --- | --- |
| COC(=O)Nc1nc2ccc(S(=O)(=O)N(CC(C)C)C[C@@H](O)[C@H](Cc3ccccc3)NC(=O)COc3c(C)cccc3C)cc2[nH]1 [Compound 6] | 10 | 2.9 | 1.6 | 60 | 8.6 | 8.6 | 2.1 | <4 | 2.7 |  |  |  |  |
| COC(=O)Nc1nc2ccc(S(=O)(=O)N(CC(C)C)C[C@@H](O)[C@H](Cc3ccccc3)NC(=O)c3ccc([N+](=O)[O-])cc3C)cc2[nH]1 [Compound 11] | 7.1 | 5.4 | 1.6 | 245 | 8.0 | 8.0 | 3.5 |  | 1.5 | 1.0 | <4 |  |  |
| COC(=O)Nc1nc2ccc(S(=O)(=O)N(CC(C)C)C[C@@H](O)[C@H](Cc3ccccc3)NC(=O)COc3c(C)cc(C#N)cc3C)cc2[nH]1 [Compound 12] | 49 | 5.5 | 9.5 | 89 | 7.8 | 7.8 | 7.9 |  | 9.5 | 2.1 | <4 |  |  |
| Cc1cccc(C)c1OCC(=O)N[C@@H](Cc1ccccc1)[C@H](O)CN(CC(C)C)S(=O)(=O)c1ccc2nc(N)n(C)c2c1 [Compound 13] |  |  | 4.5 |  | 7.7 | 7.7 | 3.4 | <4 | 2.5 | 3.4 |  |  |  |
| CC(C)CN(C[C@@H](O)[C@H](Cc1ccccc1)NC(=O)O[C@H]1CCOC1)S(=O)(=O)c1ccc2ncn(CCc3ccccc3)c2c1 [Compound 15] | 269 |  | 6.2 | 407 | 7.7 | 7.7 | 5.4 |  | 2.4 | 6.3 | 4.2 |  |  |
| CC(C)CN(C[C@@H](O)[C@H](Cc1ccccc1)NC(=O)O[C@H]1CCOC1)S(=O)(=O)c1ccc2ncn(C)c2c1 [Compound 16] | 288 |  | 5.4 |  | 7.7 | 7.7 | 5.9 | <4.49 | 2.6 |  |  |  |  |
| COC(=O)Nc1nc2ccc(S(=O)(=O)N(CC(C)C)C[C@@H](O)[C@H](Cc3ccccc3)NC(=O)COc3c(C)cc(N(C)C)cc3C)cc2[nH]1 [Compound 19] | 83 | 5.6 | 3.5 |  | 7.5 | 7.5 | 3.6 |  | 1.4 | 1.2 | <4 |  |  |
| CC(C)CN(C[C@@H](O)[C@H](Cc1ccccc1)NC(=O)OCc1cncs1)S(=O)(=O)c1ccc2nc[nH]c2c1 [Compound 23] | 23 | 7.1 | 4.8 |  | 7.3 | 7.3 | 2.5 | <4 | 3.5 | 2.3 |  |  |  |
| COc1ccc(C(=O)Nc2nc3ccc(S(=O)(=O)N(CC(C)C)C[C@@H](O)[C@H](Cc4ccccc4)NC(=O)COc4c(C)cccc4C)cc3[nH]2)cc1 [Compound 37] | 7.9 | 1.0 | 1.3 | 21 | 6.9 | 6.9 | 1.9 |  | 0.95 | 0.35 |  |  |  |
| CC(C)CN(C[C@@H](O)[C@H](Cc1ccccc1)NC(=O)OC(C)(C)C)S(=O)(=O)c1ccc2ncn(CCc3ccccc3)c2c1 [Compound 43] |  | 22 | 12.6 |  | 6.4 | 6.4 |  |  |  |  | 4.99 | 28 |  |
| Cc1cccc(C)c1OCC(=O)N[C@@H](Cc1ccccc1)[C@H](O)CN(CC(C)C)S(=O)(=O)c1ccc2ncn(CCc3ccccc3)c2c1 [Compound 47] |  | 14 | 7.8 |  | 6.4 | 6.4 |  |  |  |  | <4 | 66 |  |
| Cc1cc(OCC(=O)N[C@@H](Cc2ccccc2)[C@H](O)CN(CC(C)C)S(=O)(=O)c2ccc3nc[nH]c3c2)no1 [Compound 49] |  | 12 | 1.0 |  | 6.3 | 6.3 |  |  |  |  | <4 | 3.5 |  |
| CC(C)CN(C[C@@H](O)[C@H](Cc1ccccc1)NC(=O)OC1COC2OCCC12)S(=O)(=O)c1ccc2nc[nH]c2c1 (stereo partly drawn) [Compound 50] |  | 1.4 | 0.83 |  | 6.9 | 6.9 |  | <4 |  |  |  | 2.8 |  |
| CC(C)CN(C[C@@H](O)[C@H](Cc1ccccc1)NC(=O)O[C@H]1CCOC1)S(=O)(=O)c1ccc2nc(NC(=O)NCCN(C)C)[nH]c2c1 [Compound 52] | 4.3 | 4.2 | 3.4 |  | 6.1 | 6.1 | 3.0 | <5 | 3.5 | 2.9 |  |  |  |
| CC(C)CN(C[C@@H](O)[C@H](Cc1ccccc1)NC(=O)OCc1cccnc1)S(=O)(=O)c1ccc2nc(N)[nH]c2c1 [Compound 54] | 1.7 | 1.6 | 0.42 |  | 5.8 | 5.8 | 0.46 |  | 0.42 | 0.40 | <4 |  |  |
| CC(C)CN(C[C@@H](O)[C@H](Cc1ccccc1)NC(=O)OC1COC2OCCC12)S(=O)(=O)c1ccc2nc(N)[nH]c2c1 (stereo partly drawn) [Compound 59] |  | 1.5 | 0.31 |  | 5.3 | 5.3 |  | <4 |  |  |  | 0.39 |  |
| [(1S,2R)-2-hydroxy-3-[(2-methylpropyl)[[1-(2-methyl-propyl)benzimidazol-6-yl]sulfonyl]amino]-1-(phenylmethyl)propyl]carbamic acid, [(3R,3aS,6aR)-hexahydrofuro[2,3-b]furan-3-yl]ester [Compound 7] | 72 |  | 2.1 | 174 | 8.6 | 8.6 | 1.2 |  | 0.45 |  | <4 |  |  |
| [(1S,2R)-3-[[(1-methylbenzimidazol-5-yl)sulfonyl](2-methyl-propyl)amino]-2-hydroxy-1-(phenylmethyl)propyl]carbamic acid, [(3R,3aS,6aR)-hexahydrofuro[2,3-b]furan-3-yl]ester [Compound 64] |  | 4.3 | 1.5 |  |  | 7.6 |  |  |  |  | <4 | 13 | 7.6 |
